Article PMC12756723, “Derivatives of the Cashew Nut Shell Liquid as Ligands of Pseudomonas aeruginosa Phenazine Protein D (PaPhzD)” (ACS Omega, 2025)
“Also recorded” adds a separate entry of the source.

Tests used:
PaPhzD = biological target: T1, PaPhzD (Pseudomonas aeruginosa, UniProt P0DPB9); assay: Thermal shift assay (TSA) with SYPRO Orange; assay type: binding; settings: for Concentration–response behavior of ΔTm: 6.25 to 100 μM; for ΔTm at 50 µM: read-out: ΔTm of PaPhzD
T1 construct: inferred from Ni-NTA purification with imidazole elution; made in house; host or cells: E. coli BL21(DE3)
Procedure: Thermal shift assays were performed on an Applied Biosystems 7500 RT-PCR (Applied Biosystems, Foster City, CA USA). All experiments were carried out in triplicate with 1 °C per minute increments in temperatures that range from 25 to 85 °C in 96-well PCR plates (PCR plates 96-well, BioRad), sealed with transparent capping strips (Flatcap strips, BioRad). The fluorescence of SYPRO Orange (Invitrogen S6650) was monitored (excitation wavelength, 492 nm; emission wavelength, 610 nm). Before the compounds’ screening, protein and DMSO concentrations were evaluated to improve PaPhzD stability throughout the assay.
The protein concentration required for an optimal signal-to-noise ratio (>5-fold) was evaluated by analysis of the raw fluorescence curves at different PaPhzD concentrations (1–5 μM). Then, the effect of DMSO (0–10%) over PaPhzD T m was evaluated at the optimal protein concentration. Fluorescence raw data were recorded using Applied Biosystems 7500 Software v2.0 and then processed with NAMI software to calculate T m values by the first-derivative method.
LDT compounds were screened at a final concentration of 50 μM. Briefly, 1 μL of each compound (1 mM DMSO stock solution) was added to a mixed solution containing 5 μM PaPhzD diluted in 50 mM Tris–HCl buffer (pH 8.0) containing 100 mM NaCl, 1 mM DTT, and SYPRO Orange dye (Invitrogen S6650) (1:100 dilution). Each compound was assayed in triplicate, and ΔT m values were calculated by comparison to reference wells that had 1 μL DMSO instead of the LDT compounds. Differences between T m values (ΔT m) were considered statistically significant when p < 0.01, according to the one-way ANOVA followed by Dunnett’s post-test for multiple comparisons, available in GraphPad Prism 9.0 software (GraphPad Software, San Diego, CA, USA, www.graphpad.com).
Compounds with ΔT m values statistically different from the reference were also assayed at different concentrations (ranging from 6.25 to 100 μM) to evaluate the concentration–response behavior. The ΔT m versus concentration plots were generated using the nonlinear regression method available in GraphPad Prism version 9.0.

human PPAR isoforms = tested on: human PPAR isoforms; set-up: method as in Sahin et al. 2022 (likely, number not given); settings: previously investigated; ref Sahin et al. 2022 (likely, number not given); cited from earlier work
P. aeruginosa PA14 [1] = assay: Biofilm assay (crystal violet); assay type: cell-based, Pseudomonas aeruginosa; settings: 100 μM
Procedure: Exponential phase cultures of P. aeruginosa PA14 were diluted to 5 × 10^5 colony forming units (CFU) in 48-well plates with LB containing each compound (1, 3, and 5) at 100 μM final concentrations or 0.1% DMSO (v/v) as a negative control. The plate was incubated steadily at 30 °C for 20 h inside a plastic bag to avoid evaporation. After the incubation, the OD600 of each well was measured in a plate reader (SpectraMax Paradigm). The planktonic bacteria were removed by turning the plate over the waste, followed by three steps of washing with distilled water. After drying, a solution of 1% crystal violet was added to each well and incubated at room temperature for 30 min to stain the attached cells forming a ring at the air–liquid interface. The crystal violet solution was removed, and the plate was washed using the same procedure. The dye was solubilized with 30% acetic acid for 30 min at room temperature. The Abs550 was measured, and the value was divided by the OD600 for each well. A total of 24 replicates were made for each treatment (6 wells per plate, four plates)

PaPhzD-FITC = biological target: T2, PaPhzD-FITC (Pseudomonas aeruginosa, UniProt P0DPB9); assay: Fluorescence binding assay with FITC-labeled PaPhzD
T2 construct: inferred from Ni-NTA purification with imidazole elution; made in house; host or cells: E. coli BL21(DE3)
Procedure: PaPhzD (2.1 mg/mL) was incubated with 6 mg/mL fluorescein isothiocyanate (FITC) (Sigma-Aldrich 46950) (1:1) for 2 h at 25 °C. Next, the reaction mixture was eluted on a Hi-Trap HP desalting column (GE Healthcare) with 2 CV of 50 mM HEPES buffer (pH 8.0). The collected fractions were quantified at two different wavelengths (280 and 495 nm), and the molar ratio (Abs495/Abs280) ranging from 0.3 to 1.0 was employed for K d calculation experiments.
Subsequently, the fluorescence intensity of 0.32 μM of FITC-labeled PaPhzD was measured on a real-time thermocycler (Applied Biosystems 7500) equipped with the filter FAN (excitation wavelength: 498 nm; emission wavelength: 530 nm) for 10 min in the presence of different concentrations of each LDT compound (ranging 0.7–100 μM), previously diluted in DMSO.
The fluorescence raw data were recorded using Applied Biosystems 7500 Software v2.0, then exported to GraphPad Prism version 9.0 software to build fluorescence intensity × concentration plots and calculate K d values of the ligands by the nonlinear regression method (3-parameter fit). All experiments were carried out in triplicate using a 96-well PCR plate, manually sealed with transparent capping strips (Flatcap strips, BioRadVR).

P. aeruginosa PA14 [2] = assay: Swarming assay; assay type: cell-based, Pseudomonas aeruginosa; settings: 100 μM
Procedure: Swarming assays were performed as described, using 6-well plates. Briefly, 3 μL of culture (OD600 = 3.0) was inoculated in the center of modified M9 (20 mM NH4Cl; 12 mM Na2HPO4; 22 mM KH2PO4; 8.6 mM NaCl; 1 mM MgSO4; 1 mM CaCl2 2 H2O; 11 mM glucose; 0.5% casamino acids (Difco)) with 0.5% of Bacto-agar (Difco), containing the respective compounds (100 μM final concentration, diluted in DMSO). Plates were incubated inside plastic bags to avoid evaporation at 30 °C for 16 h. After this period, pictures were taken, and the area covered by the colonies was measured using ImageJ. All assays were performed with four replicates, and 0.1% DMSO (v/v) was employed as a negative control.

PPAR LBDs = tested on: PPAR LBDs; set-up: method as in not printed (previous PPAR work); settings: ref not given (previous PPAR work), cited from earlier work
P. aeruginosa = assay: Colony morphology in medium containing compounds; assay type: cell-based, Pseudomonas aeruginosa; settings: data not shown
[3] = tested on: P. aeruginosa cells (ATCC 27853); assay: Screening of PYO production inhibitors (supernatant absorbance 691 nm); assay type: cell-based, Pseudomonas aeruginosa; settings: 100 μM; for Pyocyanin production, Cohen's d vs control: 24 h, 30 °C; for Effect on pyocyanin production: vs DMSO control
Procedure: P. aeruginosa cells (ATCC 27853) were inoculated by depletion on King’s A agar, and the plates were incubated at 30 °C for 24 h. Isolated colonies were collected and resuspended in sterile saline solution (0.85%) until turbidity equivalent to optical density (OD) at 600 nm, equal to 0.3 (1.5 × 10^8 CFU/mL). This bacterial suspension was diluted 10-fold and used to inoculate King’s A broth.
(§1) The potential inhibitors, previously solubilized in DMSO, were added to the culture medium after the inoculation (final concentration = 100 μM). The control group was cultured in the presence of an equivalent volume of DMSO but without the presence of potential inhibitors. The cell suspension was maintained at 30 °C under constant agitation (180 rpm) for 24 h in a 24-well plate. After this period, the OD600 was measured to evaluate bacterial growth, and in parallel, after being subjected to centrifugation, the supernatant was read in a 96-well plate at a wavelength of 691 nm. The sterile medium used for culturing the microorganism was used as a positive control, and culture medium containing 1% DMSO was used as a negative control.

phzA2-G2 = assay: lacZ transcriptional fusion, phzA2-G2 operon; assay type: cell-based, Pseudomonas aeruginosa; settings: late exponential phase
Procedure: (§2) P. aeruginosa harbors two identically structured operons in its genome, which encode most of the enzymes responsible for PYO synthesis (phzA1-G1 and phzA2-G2) but have slightly different regulatory regions 1. lacZ transcriptional fusions for each operon were assayed at mid-log and late exponential phases (OD=1 and 3, respectively). At mid-log cultures, the expression of both QS-regulated operons is extremely low, and it increases more than 1000-fold at late exponential phase for phzA1-G1 and 4-fold for phzA2-G2, as expected. Addition of compounds 2 and 4 had no effect for both operons in the late […]
(§3) synthesis is not related to inhibition at the transcriptional level.
(§4) Figure 7S: Effect of LDT10 (2) and LDT13 (3) on the phzA1-G1 (A) and phzA2-G2 […]
(§5) (1 picture or pasted object on this page, not shown here)

[4] = tested on: P. aeruginosa cells (ATCC 27853); assay: Bacterial growth (OD600) in the PYO screening culture; assay type: cell-based, Pseudomonas aeruginosa; settings: 100 μM
Procedure: as §1

phzA1-G1 = assay: lacZ transcriptional fusion, phzA1-G1 operon; assay type: cell-based, Pseudomonas aeruginosa; settings: late exponential phase
Procedure: as §2, §3, §4, §5

T1 sequence (P0DPB9 whole entry): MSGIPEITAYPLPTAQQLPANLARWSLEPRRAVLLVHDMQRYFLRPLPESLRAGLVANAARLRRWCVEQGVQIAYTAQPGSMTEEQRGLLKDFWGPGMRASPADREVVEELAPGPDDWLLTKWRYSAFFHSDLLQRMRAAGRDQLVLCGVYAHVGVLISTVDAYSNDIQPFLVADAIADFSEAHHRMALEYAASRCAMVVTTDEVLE
T2 sequence (P0DPB9 whole entry): as above

SMILES | Concentration–response behavior of ΔTm (PaPhzD) | PPAR activity profile (human PPAR isoforms) | ΔTm at 50 µM (PaPhzD) | further results
CCCCCCCCCCCCCCCc1cccc(O)c1C(=O)O [Compound 1] | clear concentration–response behavior | dual (PPARα and PPARγ) agonists | – | –
CCCCCCCCCCCCCCCc1cccc(OC(C)=O)c1C(=O)O [Compound 3] | clear concentration–response behavior | pan-agonist activity | -4.7 °C | Biofilm mass, % of the control (P. aeruginosa PA14 [1]): ~30%; Biofilm, Cohen's d vs control (P. aeruginosa PA14 [1]): −2.29; Kd (PaPhzD-FITC): 0.72 µM; Effect on swarming coverage area (P. aeruginosa PA14 [2]): did not affect the coverage area; Swarming motility, Cohen's d vs control (P. aeruginosa PA14 [2]): 0.51; Increase of PPAR LBDs Tm vs DMSO control (PPAR LBDs; 50 μM): up to +17 °C; Effect on colony morphology (P. aeruginosa): No effects on colony morphology; Pyocyanin production, Cohen's d vs control [3]: −1.37; Effect on pyocyanin production [3]: no effect on pyocyanin production
CCCCCCCCCCCCCCCc1cccc(OC)c1C(=O)O [Compound 4] | clear concentration–response behavior | selective PPARα agonist | -3.3 °C | Effect on phzA2-G2 transcription (phzA2-G2): no effect; Effect on bacterial growth [4]: without affecting bacterial growth; also recorded: no significant effect on bacterial growth; Effect on biofilm formation (P. aeruginosa PA14 [1]; vs DMSO control): without affecting bacterial growth or biofilm formation; also recorded: not significantly different the control; Kd (PaPhzD-FITC): 3.6 µM; Swarming motility, % compared to control conditions (P. aeruginosa PA14 [2]): 65%; Swarming motility, Cohen's d vs control (P. aeruginosa PA14 [2]): −0.95; Effect on phzA1-G1 transcription (phzA1-G1): no effect; Effect on colony morphology (P. aeruginosa): No effects on colony morphology; Pyocyanin production, Cohen's d vs control [3]: −2.69; Effect on pyocyanin production [3]: decreased pyocyanin production
CCCCCCCCCCCCCCCc1cccc(O)c1C(=O)OC [Compound 7] | – | do not activate PPAR receptors | < 0.5 °C | –
CCCCCCCCCCCCCCCc1cccc(OC(C)=O)c1C(=O)OC [Compound 8] | – | do not activate PPAR receptors | < 0.5 °C | –
CCCCCCCCCCCCCCCc1cccc(OC)c1C(=O)OC [Compound 9] | – | do not activate PPAR receptors | < 0.5 °C | –
CCCCCCCCCCCCCCCc1ccc(C(=O)O)c(OC)c1 [Compound 10] | – | dual (PPARα and PPARγ) agonists | -1.2 °C | –
CCCCCCCCCCCCCCCc1cccc(OC(C)=O)c1 [Compound 11] | – | do not activate PPAR receptors | < 0.5 °C | –
CCCCCCCCCCCCCCCc1cccc(OC)c1 [Compound 12] | – | do not activate PPAR receptors | < 0.5 °C | –
CCCCCCCCCCCCCCCc1cccc(OCC(=O)OCC)c1 [Compound 13] | – | pan-agonist activity | -1.2 °C | Thermal shift in LBDs of PPARα and PPARγ (PPAR LBDs): negative thermal shift
CCCCCCCCCCCCCCCc1cccc(OC(C)(C)C(=O)OCC)c1 [Compound 14] | – | dual (PPARα and PPARγ) agonists | < 0.5 °C | Effect on Tm values for all three PPARs (PPAR LBDs): no effect on the T m values
CCCCCCCCCCCCCCCc1cccc(OCC(=O)O)c1 [Compound 15] | clear concentration–response behavior | pan-agonist activity | -3.8 °C | Kd (PaPhzD-FITC): 1000 µM
CCCCCCCCCCCCCCCc1cccc(OC(C)(C)C(=O)O)c1 [Compound 16] | – | pan-agonist activity | -2.6 °C | –
